Measurements from patent US12298319B2, “Method for measuring alpha value of muscarinic M1 receptor positive allosteric modulators” (Takeda Pharmaceutical Company Limited, priority 2017, dated 2025).

Experiments:
rats = test: Assessment of cholinergic side effects in rats; settings: SD, rat, in vivo, po, 240 min
Description: SD Rats were placed individually into observation cages and acclimated for at least 1 h. […] The severity of diarrhea was scored as follows: 0, normal pellets; 1, wet but formed feces; 2, swollen or mucous feces; 3, severe watery diarrhea. For diarrhea, the number of rats and mice, in which more than or equal to 2 was scored, was counted. For fasciculation, the number of rats with marked fasciculation of both the upper and lower limbs was counted. For lacrimation, the number of rats, in which moderate to marked discharge (severer lacrimation than fluid around eyes) was induced, was counted. For salivation, the number of rats with severe salivation, but not just noticeably wet around mouth, was induced was counted. The maximum score during the observation was adopted.
(§1) For diarrhea, the number of rats scored more than or equal to 2 was counted. For fasciculation, the number of rats with marked fasciculation of both the upper and lower limbs was counted. For lacrimation, the number of rats in which moderate to marked discharge (severer lacrimation than fluid around eyes) was counted. For salivation, the number of rats with severe salivation, but not just noticeably wet around mouth, was counted. The maximum score during the observation was adopted. Data were presented as the number of incidence per total rats.
as §1, with “in which loose” for “scored more than”, “mucous stool, or diarrhea was induced” for “equal to 2”, “(severe” for “(severer”, “eyes) was caused” for “eyes)”, “mouth” for “mouth,”

[1] = test system: layer 5 pyramidal neurons; test: Electrophysiology, current clamp of layer 5 pyramidal neurons in mPFC slices; type: cell-based, mouse; settings: bath application, Compound D at 10 μM; for after hyperpolarization (AHP) / resting membrane potential (RMP): carbachol 10 M [sic] for 10 min; for after depolarization (ADP): carbachol for 10 min as printed
Description: Experiments were performed on coronal brain slices of the medial prefrontal cortex (mPFC) from 4-week-old male C57BL/6 mice. The animals were quickly sacrificed and the brain was placed in an ice-cold NMDG artificial cerebrospinal fluid (ACSF) (in mM): NMDG, 92; KCl, 2.5; CaCl2, 0.5; NaH2PO4, 1.25; MgSO4, 6; NaHCO3, 30; glucose, 25; HEPES, 20; thiourea, 2; Na-ascorbate, 5; and Na-pyruvate, 3) (Ting J. T. et al., Methods Mol Biol. 2014; 1183:221-42). Slices were cut at a thickness of 300 μm with a vibroslicer. Slices were initially transferred to a holding chamber containing NMDG aCSF for 15 minutes at 34° C. Slices were then transferred to a room temperature holding chamber for at least 1 h containing HEPES aCSF (in mM): NMDG, 92; KCl, 2.5; CaCl2, 2; NaH2PO4, 1.25; MgSO4, 2; NaHCO3, 30; glucose, 25; HEPES, 20; thiourea, 2; Na-ascorbate, 5; and Na-pyruvate, 3). Subsequently, the slices were transferred to the recording chamber, in which they were submerged and perfused with aCSF containing the following (in mM): NaCl, 124; KCl, 5; NaH2PO4, 1.2; MgCl2, 1.5; CaCl2, 2.5; glucose, 10; and NaHCO3, 24), at a flow rate of 1-2 ml/min. All buffers were continuously bubbled and saturated with carbogen (95% O2/5% CO2). Current clamp recordings were carried out at 32-33° C. from visually identified pyramidal neurons from layer 5 using a borosilicate pipette (5-7 MΩ) filled with intracellular solution (in mM): K-gluconate, 135; KCl, 4; HEPES, 10; EGTA, 0.2; MgATP, 4; Na2GTP, 0.3; pH 7.3 with KOH). Signals were acquired using a Multiclamp 700B amplifier and a Digidata 1440A interface board (Molecular Devices Japan, Tokyo, Japan), filtered between 2 kHz, sampled at 10 kHz, and analyzed with pClamp10 software.
M1Rs are known to contribute to the three cholinergic effects in layer 5 pyramidal neurons: the resting membrane potential (RMP) and physiological responses such as the after hyperpolarization (AHP) the after depolarization (ADP) that typically follow brief periods of action potential generation (Gulledge et al., J. Neurosci. 2009 Aug. 5; 29(31): 9888-9902). To investigate effects of M1 PAMs with different n value on brain function, cholinergic excitation by Compound D and Compound C were assessed. First, the muscarinic receptor agonist carbachol ([…] for 10 min) was tested by bath application (FIG. 13-A, FIG. 13-B, FIG. 13-C).

M5R = target: T1, M5R (Homo sapiens, UniProt P08912); test: Ca2+ flux assay in CHO-K1 cells expressing human M5R; type: cell-based; parameters: expressed in transfected cells; host or cells: CHO-K1; settings: read-out: IP for M5R
T1 sequence (P08912 1-532): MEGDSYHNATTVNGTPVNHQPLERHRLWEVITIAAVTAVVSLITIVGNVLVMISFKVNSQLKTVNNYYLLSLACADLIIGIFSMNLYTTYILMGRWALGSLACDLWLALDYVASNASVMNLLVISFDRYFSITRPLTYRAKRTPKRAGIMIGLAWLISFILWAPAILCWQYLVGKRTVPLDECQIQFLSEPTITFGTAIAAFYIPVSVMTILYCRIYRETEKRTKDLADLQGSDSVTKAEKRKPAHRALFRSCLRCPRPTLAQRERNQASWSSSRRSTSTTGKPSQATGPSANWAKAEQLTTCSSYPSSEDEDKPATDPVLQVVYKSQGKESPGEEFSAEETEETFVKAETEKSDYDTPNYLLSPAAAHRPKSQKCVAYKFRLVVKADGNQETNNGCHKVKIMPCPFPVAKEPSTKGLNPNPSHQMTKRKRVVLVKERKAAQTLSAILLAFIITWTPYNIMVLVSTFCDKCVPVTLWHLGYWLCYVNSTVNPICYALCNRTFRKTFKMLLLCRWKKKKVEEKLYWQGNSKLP

## Cn1cc(-c2ccc(Cc3cc4c(=O)n([C@H]5CCCC[C@@H]5O)cnc4c4ccccc34)cn2)cn1 [Compound C, 3-((1S,2S)-2-hydroxycyclohexyl)-6-((6-(1-methyl-1H-pyrazol-4-yl)pyridin-3-yl)methyl)benzo[h]quinazoline-4(3H)-one, reference compound]
rats; 0.01 mg/kg
  Diarrhea: 0/6 (0%)
  Fasciculation: 0/6 (0%)
  Lacrimation: 0/6 (0%)
  Myosis: 0/6 (0%)
  Salivation: 0/6 (0%)
rats; 0.03 mg/kg
  Diarrhea: 0/6 (0%)
  Fasciculation: 0/6 (0%)
  Lacrimation: 0/6 (0%)
  Myosis: 0/6 (0%)
  Salivation: 0/6 (0%)
rats; 0.1 mg/kg
  Diarrhea: 3/6 (50%)
  Fasciculation: 0/6 (0%)
  Lacrimation: 0/6 (0%)
  Myosis: 0/6 (0%)
  Salivation: 0/6 (0%)
rats; 0.3 mg/kg
  Diarrhea: 4/6 (67%)
  Fasciculation: 0/6 (0%)
  Lacrimation: 0/6 (0%)
  Myosis: 0/6 (0%)
  Salivation: 0/6 (0%)
rats
  minimal diarrhea inducing dose in rats: 0.1 mg/kg
[1]
  after hyperpolarization (AHP): suppressed the AHP
  resting membrane potential (RMP): generated subthreshold changes in the RMP
  after depolarization (ADP): generated an ADP
M5R
  EC50: > 1 µM

## Cc1c(Cc2ccc(-n3cccn3)cc2)cc2c(c1F)CN([C@H]1COCC[C@@H]1O)C2=O [Compound D, 4-fluoro-2-[(3S,4S)-4-hydroxytetrahydro-2H-pyran-3-yl]-5-methyl-6-[4-(1H-pyrazol-1-yl)benzyl]-2,3-dihydro-1H-isoindol-1-one]
rats; 1 mg/kg
  Diarrhea: 0/6 (0%)
  Fasciculation: 0/6 (0%)
  Lacrimation: 0/6 (0%)
  Myosis: 0/6 (0%)
  Salivation: 0/6 (0%)
rats; 3 mg/kg
  Diarrhea: 1/6 (17%)
  Fasciculation: 0/6 (0%)
  Lacrimation: 0/6 (0%)
  Myosis: 0/6 (0%)
  Salivation: 0/6 (0%)
rats; 10 mg/kg
  Diarrhea: 5/6 (83%)
  Fasciculation: 0/6 (0%)
  Lacrimation: 0/6 (0%)
  Myosis: 0/6 (0%)
  Salivation: 0/6 (0%)
rats; 30 mg/kg
  Diarrhea: 4/6 (67%)
  Fasciculation: 0/6 (0%)
  Lacrimation: 0/6 (0%)
  Myosis: 0/6 (0%)
  Salivation: 0/6 (0%)
rats
  minimal diarrhea inducing dose in rats: 10 mg/kg
[1]
  after hyperpolarization (AHP): not depolarization of RMP and suppression of AHP
  resting membrane potential (RMP): not depolarization of RMP
  after depolarization (ADP): produced significant ADP generation
M5R
  EC50: > 10 µM
